Source: a melting point compilation (Tetko et al.; mined from patent text by program, amines drawn as free bases though some values may be those of a salt)

melting point	Compound
68 °C	CCOc1nn(C(=O)NS(=O)(=O)c2ccccc2N2CCCC2)c(=O)n1C
180 to 183 °C	CC(=O)C(Cl)=NNc1ccc([N+](=O)[O-])cc1
190 to 193 °C	COC(=O)C1=C(C)NC(=O)N(C(=O)OC)C1c1cccc(N)c1 (stereo not given)
44 to 46 °C	CCC(=O)Oc1ccc(C#N)cc1
200 °C	Oc1ccc(-c2cccc(OC3SCC(O)C(O)C3O)c2)cn1 (stereo not given)
196 °C	CCCC(=O)N[C@H]1CC[C@H](CCN2CCC(c3cccc4c3CCO4)CC2)CC1
260 °C	O=C(Nc1nc2ccccc2s1)Nc1cccc2c1C1CCCCN1C2=O (stereo not given)
278 to 283 °C	CCOC(=O)c1cn2c3c(cc(I)cc3c1=O)N(C)C(=O)C2
140 to 148 °C	C=Cc1ccccc1C1C(C(=O)OC)=C(C)NC(C)=C1C(=O)OC
85 to 86 °C	CCOC(=O)COc1ccc(NC(=O)OCc2ccccc2)cc1
85 to 86 °C	CCOC(=O)C1=CCCCC1S(=O)(=O)Nn1cccc1 (stereo not given)
184 to 185 °C	CCC(=O)OCC(=O)C12OCOC1CC1C3CCC4=CC(=O)C=CC4(C)C3C(O)CC12C (stereo not given)
134 to 136 °C	CCOC(=O)C1=C(C)Nc2ccnc(OC(C)C)c2C1c1cccc2nonc12 (stereo not given)
124 to 125 °C	COc1c(CN(C)C)c2c(c3c1OC(C)(C)C3)C(c1ccccc1)=NC(C)(C)C2
127 to 128 °C	CCOC(=O)CNc1ncccc1NC(=O)c1ccc(F)cc1
193 to 194 °C	CC(=O)NCCCNc1ccc(NCCN(C)C)c2c1C(=O)c1ccccc1C2=O
231 to 232 °C	CN(c1ccc(Cl)cc1)C1CCN(C2CCN(c3ccc(OC[C@@]4(C)Cn5cc([N+](=O)[O-])nc5O4)cc3)CC2)CC1
> 250 °C	O=C(O)C(=Cc1cc(C(=O)O)c(=O)n2ccccc12)C(=O)O
269 to 271 °C	CC(=O)N1CCN(c2cc3c(c(N)c2F)c(=O)c(C(=O)O)cn3C2CC2)CC1C (stereo not given)
48 to 50 °C	CCOC(=O)c1cccn2ccnc12
158 to 161 °C	O=C(c1ccccc1)c1cc(Cl)cc2c1S(=O)(=O)CC2C(=O)O (stereo not given)
186 to 188 °C	CCOC(=O)C1CNc2c(OC)cc(Cc3cnc(N)nc3N)c(OC)c2C1 (stereo not given)
242 to 245 °C	CCOc1c(C(N)=O)cnc2c(NC(=O)c3c(Cl)cccc3Cl)cccc12
142 to 144 °C	COCCCC(=O)NNC(=O)N1Cc2ccccc2Oc2ccc(Cl)cc21
53 to 54 °C	COC(=O)CCc1cnoc1-c1ccc(Cl)c(F)c1
86 to 88 °C	COCC(=O)N(c1c(C)cccc1N)C(C)C(=O)OC (stereo not given)
239 to 245 °C	O=C1NC(c2ccc(Cl)cc2)c2ccccc2C1CCN1CCOCC1 (stereo not given)
112 to 115 °C	COc1ccc2cc([C@H](C)C(=O)OCCS(=O)CCOC(=O)OC(C)O[N+](=O)[O-])ccc2c1 (stereo not given in full)
121 °C	CC(C)(C)[Si](C)(C)OC1C(=O)N(S(=O)(=O)c2ccc(N3CCCCCC3)cc2)CC1O (stereo not given)
122 to 128 °C	Cc1ccccc1OCC(O)CNC(C)(C)COc1ccc(C(N)=O)cn1 (stereo not given)

Further lines, the compound ahead of its results:

Compound	melting point
CCCc1nc2c(C)cc(C)nc2n1Cc1ccc2oc(-c3ccccc3C(=O)O)nc2c1	150 to 160 °C
COC(=O)c1ccc(Br)cc1CBr	78 to 79 °C
Cc1ccc(S(=O)(=O)c2cc3c(c(S(=O)(=O)NCCc4ccccc4F)c2)CCCC3)cc1	55 to 60 °C
Clc1ccc(C(Cn2ccnc2)OCc2cc(Cl)nc3ccccc23)c(Cl)c1 (stereo not given)	180 to 181 °C
CCOC(=O)C(=NOC)C1=CSCCS1	65 to 67 °C
COc1cccc(/C(=C\C=C\C(=O)NCCCCc2cccnc2)c2cccc(F)c2)c1	96 to 98 °C
CCOC(=O)c1cc(-c2ccccc2)oc1C(F)(F)F	44 to 45 °C
C/C(=C(\C#N)C(N)=S)N1CCCOCC1	151 to 156 °C
CS(=O)(=O)Nc1ccc(C=O)cc1F	151 °C
CC(C)OC(=O)N[C@H](C(=O)N[C@H](CN)C(C)C)C(C)C	106 °C
COc1nc2cccnc2n(-c2ccc(Cl)cc2)c1=O	242 to 243 °C
NS(=O)(=O)c1ccc(F)c(C(O)CCl)c1 (stereo not given)	112 °C
Cc1nnc(S(=O)c2c(C)cccc2C)o1 (stereo not given)	79 to 80 °C
COc1cccc(CNc2nc(NC[C@@H](C)O)nc3c2ncn3C(C)C)c1O	100 to 103 °C
NCC1Cc2cc(-c3cccc(F)c3)cc(F)c2O1 (stereo not given)	> 250 °C
Cc1nn(-c2c(Cl)cc(C(F)(F)F)cc2Cl)c(NCC(=O)O)c1SC(F)(F)F	168 to 170 °C
O=c1c(Cl)c(Cl)cnn1-c1ccc(Cl)cc1F	158 °C
CSCCC(NC(=O)c1ccc(Cl)cc1)NC(=NC#N)Nc1cccnc1 (stereo not given)	104 to 105 °C
O=C(O)C(=O)c1ccc(OCCOc2ccc3ccccc3c2)c(Cl)c1	167 to 168 °C
N#CNC(=NCCc1ccccc1Cl)c1cncc(NC(=O)c2ccccc2)c1	220 °C
CSc1c(C=C(C#N)S(C)(=O)=O)c2ccccc2n1Cc1ccccc1	125 to 126 °C
O=Cc1cccc2nnsc12	134 to 136 °C
COc1ccc2c(c1)CCc1cc(Nc3ccc(F)cc3F)ccc1C2=O	157 °C
COC(=O)c1nn(-c2ccc(CBr)cc2)nc1C	122 to 125 °C

Compound	melting point
O=C(O)c1ccccc1CSc1ccc(Br)cc1	139 to 140 °C
CCOC(=O)CCCCCCC(NC(N)=O)C(=O)OCC (stereo not given)	79 to 80 °C
CCN1c2ncc(COc3ccccc3O)cc2C(=O)N(C)c2ccc(Cl)nc21	172 to 173 °C
OC(Cn1cncn1)(c1ccc(F)cc1)c1ccccc1Cl (stereo not given)	115 to 116 °C
Cc1c(C(=O)O)c(=O)c(-c2ccccc2)cn1C	227 to 228 °C
C#CC1CCN(C(=O)c2ccccc2)CC1	101 to 103 °C
CC(C)(C)OC(=O)Nc1ccc(-c2ccc(OC(F)(F)F)cc2)cc1[N+](=O)[O-]	145 to 147 °C
CC(C)=NNc1ccc(OCC(C)(C)NCC(O)COc2ccccc2C#N)nn1 (stereo not given)	126 to 128 °C
Nc1nccc(-c2cn(-c3ccccc3)nc2-c2ccc(F)cc2)n1	170 to 171 °C
COc1ccc2cc([C@H](C)C(=O)OCC(C)(O[N+](=O)[O-])O[N+](=O)[O-])ccc2c1	67 to 68 °C
COc1ccc(N2C(=O)C(=C3CCCN3C)c3ccccc32)cc1F	68 to 71 °C
CC(C)c1cc(C(C)C)c(CC(=O)NS(=O)(=O)Oc2c(C(C)C)cc(C=CC#N)cc2C(C)C)c(C(C)C)c1	157 to 160 °C
NCC(O)c1ccc([N+](=O)[O-])cc1 (stereo not given)	138 to 139 °C
CC(C#N)c1ccc2nc(N)sc2c1 (stereo not given)	165 °C
O=S(=O)(CCO)c1cc2c(Nc3cccc(Br)c3)ncnc2cn1	208 to 209 °C
CCCCc1nc(C)c(CCC(=S)N(CC)CC)c(=O)n1Cc1ccc(-c2ccccc2-c2nnn[nH]2)cc1	77.8 to 81.1 °C
CC(=Nc1ccc(NC(=O)[C@@H](N)CC(C)C)cc1)N(C)C	106 to 107 °C
NC(=NO)c1c(C(F)(F)F)ccc(F)c1F	114 to 115 °C
CCOC(=O)c1ccc(Cn2cnc3ncccc32)cc1	142 to 143 °C
COc1cc(OC)c2ncc(C(=O)NCc3ccc(Cl)cc3)c(O)c2c1	270 to 271 °C
O=C(O)COC(c1ccc(Cl)cc1)c1ccc(Cl)cc1	108 to 110 °C
Cc1[nH]c(=O)n(-c2cc(OC(C)C)c(Cl)cc2F)c(=O)c1F	162 to 164 °C
FC(F)(F)C(c1ccc(Cl)cc1Cl)c1ccc(Cl)cc1Cl	84 to 86 °C
CNC(=O)N(O)Cc1ccc(OCc2ccccc2)cc1	150 to 153 °C

Compound	melting point
CC1(c2ccc(OCc3ccccc3)c(C=O)c2)OCCO1	78 to 80 °C
CCn1nccc1-c1ccc2[nH]c3c(cc(-c4ccc(Cl)cc4Cl)c(=O)n3C)c2c1	255 to 258 °C
CC(C(=O)NC1CCCCC1)N1CCN(c2ccccn2)CC1 (stereo not given)	126 to 128 °C
CC(SC1COC(c2ccc(C(=O)Nc3ccc(C#N)cc3)cc2)OC1)C(O)(Cn1cncn1)c1ccc(F)cc1F (stereo not given)	176 °C
Cn1c([N+](=O)[O-])cnc1C=NN1CCN(CCN2CCOCC2)C1=O	173 °C
O=Cc1cc(-c2ccccc2)c2ccc3c(-c4ccccc4)cc(C=O)nc3c2n1	165 to 170 °C
COc1cc(Nc2nc3cccc(-c4ccc(S(C)(=O)=O)cc4)c3o2)cc(OC)c1OC	205 to 207 °C
COC(=O)c1cccc(CC(C)NCC(O)c2ccc(O)c(CO)c2)c1 (stereo not given)	60 to 70 °C
O=S(CCCCCCOc1ccc(C2=C(c3ccccc3)CCCc3cc(O)ccc32)cc1)CCCC(F)(F)C(F)(F)F (stereo not given)	121 °C
O=C1C(=O)c2ccc(-c3ccccc3C(F)(F)F)cc2C2=C1SCC1(CCNCC1)O2	125 to 127 °C
CN1Cc2c(I)ncn2-c2ccccc2C1=O	174 to 176 °C
CCCCCCCCCCNC(=O)c1cc(C(=O)NCCCCCCCCCC)cc(N(CCCC(=O)O)CCCC(=O)O)c1	154 to 156 °C
N#Cc1c(N2CCc3ccccc3CC2)nc(CO)[nH]c1=O	196 to 198 °C
O=C(c1ccc(-c2cccc3ccccc23)nc1)N1Cc2cccn2Cc2ccccc21	155 to 158 °C
CCN(CC)C(=O)n1cnc(S(=O)(=O)Cc2ccccc2)n1	87 to 88 °C
OCCOc1nc2ncnc(NCc3ccco3)c2[nH]1	182 to 184 °C
Cc1cccc(CC(=O)O)c1OCCCc1cc(OC(C)C)nn1Cc1ccc(Cl)cc1Cl	70 to 71 °C
N#Cc1ccc(Nc2nc(N)nc(Cc3c(Cl)ccc4[nH]ccc34)n2)cc1	267 to 268 °C
O=C1N(Cc2cnc(N3CCCCC3)s2)c2ccccc2C12COc1cc3c(cc12)OCO3 (stereo not given)	195 to 197 °C
O=CN1CCC(=C2c3ccc(Cl)cc3CCc3cccnc32)CC1	147 to 149 °C
O=C(O)/C=C/c1cn(Cc2ccc(OCc3csc(-c4ccccc4)n3)cc2)nc1-c1cccs1	137 to 138 °C
Cc1nnc(COc2ccc(NC(=O)/C=C/c3cnn(C)c3-c3ccc(F)cc3)cc2)o1	117 to 118 °C
